Measurements reported in paper PMC5729429, “Gimatecan exerts potent antitumor activity against gastric cancer in vitro and in vivo via AKT and MAPK signaling pathways” (Journal of Translational Medicine, 2017).
Structures can show the parent of a compound that is named as a salt.

Key:
[1] = tested on: DNA TopI; assay: Western blot of DNA TopI expression in GC cells; format: cell-based, human; conditions: SNU-1, HGC27 and NCI-N87; 48 h; gimatecan at 100 nM or more; irinotecan even at high concentrations
Protocol: SNU-1, HGC27 and NCI-N87 cells were starved in serum-free medium overnight, exposed to inhibitors for 48 h and harvested at 70–80% confluence. Total protein was extracted from cells or xenograft tissues on ice, using RIPA Lysis Buffer (Beyotime, Shanghai, China) supplemented with complete protease inhibitor and phosphatase inhibitor cocktail (Roche, Basel, Switzerland). Protein concentration was measured using a BCA Protein Assay Kit (Beyotime, Shanghai, China), and 50 μg protein from each sample was separated by 10% SDS-PAGE. After transfer to nitrocellulose membranes (GE Healthcare, Piscataway, NJ), samples were incubated with corresponding primary antibodies diluted in 5% BSA at 4 °C overnight and then with secondary antibodies at room temperature for 1 h. Proteins were visualized with a chemiluminescent detection system (GE Healthcare), using ECL plus Western blot reagents (GE Healthcare). Western-blotting bands were quantified and normalized by ImageJ software.
Cells were starved in serum-free medium overnight, exposed to gimatecan or irinotecan for 48 h and harvested at 70–80% confluence. Total protein of SNU-1 and NCI-N87 was extracted and the expression of TopI, pAKT, pMEK, pERK, p-p38 MAPK and pJNK2 were assessed by western-blotting followed by quantification and normalization by ImageJ. All data are mean ± SD of three independent experiments. Compared with controls, *p < 0.05

[2] = tested on: GC patient-derived xenografts (PDX); assay: Tumor growth inhibition in GC patient-derived xenograft (PDX) models; format: in vivo, NOD/SCID mice; conditions: for TGIs (%): gimatecan 0.2 mg/kg daily oral gavage, irinotecan 20 mg/kg weekly i.p., 3 weeks; for antitumor activity compared with control groups: all five xenografts
Protocol: Establishment and serial passaging of GC patient-derived xenografts (PDX) models were as previously described. All procedures were performed under sterile conditions at an SPF facility and carried out in accordance with the guide for the Care and Use of Laboratory Animals of the National Institutes of Health. Animal experiments were approved by an independent ethics committee of Peking University Cancer Hospital.
Five PDX tissues were subcutaneously inoculated into the flanks of 6-week-old female non-obese diabetic/severe combined immunodeficiency (NOD/SCID) mice. When tumors reached 150–250 mm^3, mice were randomized to three groups (N = 5/group) with similar tumor volumes: (1) control group (physiological saline 100 µl daily, by orally gavage), (2) gimatecan group (gimatecan 0.2 mg/kg daily, by orally gavage) and (3) irinotecan group (irinotecan 20 mg/kg via weekly intraperitoneal injection). All animals were treated for 3 weeks. Tumor size and body weight were measured twice a week, and tumor volume was calculated using the following formula: V = (L × W^2)/2 (V, volume; L, length; W, width). Tumor growth inhibition (TGI) was calculated using the following formula: TGI = 1 − ΔT/ΔC × 100% (ΔT = tumor volume changes of the drug treated group, ΔC = tumor volume changes of the control group on the final day of the study).
A PDX model was established by subcutaneously transplanting tumor tissues of a patient into NOD/SCID mice and PDX 1–5 indicated PDX models from 5 different GC patients. PDX tissues were subcutaneously inoculated into mice, and when the tumor size reached 150–250 mm^3, mice (n = 5 in each group) were treated with buffer control or inhibitors. Tumor volumes were presented as mean ± SD. The antitumor activity is depicted by tumor growth inhibition (TGI). […] (ΔT = tumor volume change of the drug-treated group, ΔC = tumor volume change of the control group on the final day of the study). *p < 0.05, **p < 0.01, ***p < 0.001. b Immunohistochemical staining for Ki-67 of xenografts on day 22 of treatment from four PDX models. The ki-67 index, marker of cell proliferation, was calculated as the proportion of positive tumor cell nuclei in all tumor cells examined and labeled in red in the images. Scale bar represents 100 µm TEXT PRINTED IN THE PICTURE: (b) Vehicle: PDX 2: 100%; PDX 3: 70%; PDX 4: 70%; PDX 5: 40% | (b) Irinotecan: PDX 2: 60%; PDX 3: 70%; PDX 4: 60%; PDX 5: 50% | (b) Gimatecan: PDX 2: 60%; PDX 3: 10%; PDX 4: 40%; PDX 5: 10% DOUBTS OF THE COPYIST ABOUT THIS PICTURE: Vehicle, PDX 3: 70% or 20% (blurred red print on the image) / Vehicle, PDX 4: 70% or 20% / Vehicle, PDX 5: 40%, first digit blurred / Irinotecan, PDX 2: 60% or 80% or 50% / Irinotecan, PDX 3: 70% or 20% / Irinotecan, PDX 4: 60% or 50% or 80% / Irinotecan, PDX 5: 50% or 60% or 30% / Gimatecan, PDX 2: 60% or 50% or 80% / Gimatecan, PDX 4: 40%, first digit blurred / The measure of the percentages in panel b is not printed in the picture

[3] = tested on: NCI-N87 cells; assay: Cell viability assay (CCK-8), NCI-N87; format: cell-based; conditions: Homo sapiens, Fig. 1a 48 h exposure, 0–1 µM, read-out: IC50 antiproliferative effect
Protocol: Human GC cell lines SNU-1, HGC27 and MGC803 were purchased from Peking Union Medical College, and the NCI-N87 cell line was a gift from You-yong Lv, Ph.D. (Peking University Cancer Hospital and Institute). Cells were cultured in RPMI 1640 medium and Dulbecco’s Modified Eagle Medium (Gibco-BRL, MD, USA), respectively, supplemented with 10% fetal bovine serum (Gibco-BRL), 100 U/ml penicillin (Gibco-BRL) and […] streptomycin (Gibco-BRL). Cells were incubated in a humidified incubator (37 °C) supplemented with 5% CO2.
SNU-1, HGC27, MGC803 and NCI-N87 cells (5000 cells/well) were seeded in 96-well plates and incubated overnight in complete medium, followed by exposure to gimatecan (0–1 µM) or irinotecan (0–1 µM) for 24, 48, or 72 h. Cell viability was measured using a Cell Counting Kit-8 (Dojindo, Kumamoto, Japan) according to the manufacturer’s instructions. Absorbance at 450 nm was measured using a microplate spectrophotometer. All experiments were repeated at least three times.

Structure (SMILES)	expression of DNA TopI [1]	TGIs (%) ([2]; PDX model 1)	TGIs (%) ([2]; PDX model 2)	TGIs (%) ([2]; PDX model 3)	TGIs (%) ([2]; PDX model 4)	TGIs (%) ([2]; PDX model 5)	antitumor activity compared with control groups [2]	IC50 [3] [nM]
CC[C@@]1(O)C(=O)OCc2c1cc1n(c2=O)Cc2c-1nc1ccccc1c2/C=N/OC(C)(C)C [Gimatecan, 7-t-butoxyiminomethylcamptothecin]	significantly inhibited	110.1	106.6	84.4	91.7	108.7	significant antitumor activity	88.2
CCc1c2c(nc3ccc(OC(=O)N4CCC(N5CCCCC5)CC4)cc13)-c1cc3c(c(=O)n1C2)COC(=O)[C@]3(O)CC [Irinotecan, irinotecan hydrochloride]	little effect	75.4	76.1	24.1	15.1	40.6	significant antitumor activity	142
